Reference: patent publication US6197761A, “17β-2-oxo-tetrahydrofuranyl)-carbothioic acid ester, -carboxylic acid ester and -carboxylic acid amide androstane derivatives” (Glaxo Wellcome Inc., priority 1995, dated 2001)

Columns and labels:
[1] = target: T1, Human Glucocorticoid Receptor (Homo sapiens, UniProt P04150); experiment: functional in vitro glucocorticoid assay, sPAP reporter under MMTV LTR in transfected Hela cells; assay type: cell-based; details: sPAP transcription in transfected Hela cells, 72 hours incubation
T1 construct: endogenous in cells; host or cells: HeLa cells (stably transfected with the sPAP reporter under the MMTV LTR)
T1 sequence (P04150 1-777): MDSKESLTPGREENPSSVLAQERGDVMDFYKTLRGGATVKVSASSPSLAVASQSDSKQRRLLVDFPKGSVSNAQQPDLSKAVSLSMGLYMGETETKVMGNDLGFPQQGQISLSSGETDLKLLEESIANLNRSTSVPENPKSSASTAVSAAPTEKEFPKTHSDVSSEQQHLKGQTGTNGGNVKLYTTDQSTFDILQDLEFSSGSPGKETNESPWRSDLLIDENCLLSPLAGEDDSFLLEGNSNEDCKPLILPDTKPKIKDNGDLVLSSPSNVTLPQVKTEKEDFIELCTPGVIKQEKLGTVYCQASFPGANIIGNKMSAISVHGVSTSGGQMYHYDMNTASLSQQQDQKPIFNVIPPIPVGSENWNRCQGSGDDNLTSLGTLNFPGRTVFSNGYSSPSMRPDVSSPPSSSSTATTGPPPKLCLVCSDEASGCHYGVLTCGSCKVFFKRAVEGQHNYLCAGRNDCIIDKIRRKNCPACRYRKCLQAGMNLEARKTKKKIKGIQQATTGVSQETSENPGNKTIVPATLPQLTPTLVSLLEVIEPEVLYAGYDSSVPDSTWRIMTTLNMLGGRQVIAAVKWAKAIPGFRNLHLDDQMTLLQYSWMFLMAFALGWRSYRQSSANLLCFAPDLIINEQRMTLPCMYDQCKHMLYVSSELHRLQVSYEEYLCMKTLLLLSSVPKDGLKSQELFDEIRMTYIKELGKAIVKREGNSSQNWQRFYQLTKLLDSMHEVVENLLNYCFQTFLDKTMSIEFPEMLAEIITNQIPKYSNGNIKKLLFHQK
Text: The functional assay used was a modification of the method described by T. S Berger et al, of J. of Steroid Biochem. Molec. Biol. 1992, 41 (3-8), 733-738, "Interaction of Glucocorticoid analogues with the Human Glucocorticoid Receptor".
Thus, Hela cells were stably transfected with a detectable reporter gene (secreted placental alkaline phosphatase, sPAP) under the control of a glucocorticoid response promoter (the LTR of the mouse mammary tumour virus, MMTV).
Various concentrations of standard (dexamethasone) or compounds of the invention were incubated with transfected Hela cells for 72 hours. At the end of the incubation, substrate ([…]) for sPAP was added and the product measured by a spectrophotometric method. Increased absorbance reflected increased sPAP transcription and concentration-response lines were constructed such that EC50 -values could be estimated.

rat ear oedema = experiment: Anti-inflammatory activity: inhibition of rat ear oedema (croton oil); assay type: in vivo; details: topical to ear with 5% croton oil in acetone, male rats, 6 hours
Description: (i) Anti-inflammatory Activity--Inhibition of rat ear oedema
The test compounds are dissolved in acetone and 40 ul containing 5% croton oil is applied to the inner surface of each of the ears of 60-80 g male rats. Animals are killed 6 hours later and the ears are removed. Standard size (0.5 cm diameter) discs are punched out and the discs weighed. Mean weight of the ear discs is calculated and from this percentage inhibition of ear inflammation in relation to croton oil alone treated ears are calculated.

[2] = Hydrolysis in Blood (stability in human plasma); assay type: in vitro ADME

Compound	EC50 [1] [nM]	also measured
CCC(=O)O[C@]1(C(=O)SC2CCOC2=O)[C@@H](C)C[C@H]2[C@@H]3CCC4=CC(=O)C=C[C@]4(C)[C@@]3(F)[C@@H](O)C[C@@]21C (single isomer, unassigned) [Example 7, 9α-Fluoro-11β-hydroxy-16β-methyl-3-oxo-17α-propionyloxy-androsta-1,4-diene-17β-carbothioic acid S-(2-oxo-tetrahydro-furan-3-yl) ester]	< 400	–
CC1(C)O[C@@H]2C[C@H]3[C@@H]4C[C@H](F)C5=CC(=O)C=C[C@]5(C)[C@@]4(F)[C@@H](O)C[C@]3(C)[C@]2(C(=O)SC2CCOC2=O)O1 (single isomer, unassigned) [Example 12, 6α,9α-Difluoro-11β-hydroxy-16α,17α-isopropylidenedioxy-3-oxoandrosta-1,4-diene-17β-carbothioic acid S-(2-oxo-tetrahydro-furan-3-yl) ester]	< 400	–
CC1(C)O[C@@H]2C[C@H]3[C@@H]4C[C@H](F)C5=CC(=O)C=C[C@]5(C)[C@@]4(F)[C@@H](O)C[C@]3(C)[C@]2(C(=O)N[C@@H]2CCOC2=O)O1 (single isomer, unassigned) [Example 16 Isomer B, 6α,9α-Difluoro-11β-hydroxy-16α,17α-isopropylidenedioxy-3-oxo-androsta-1,4-diene-17β-carboxylic acid N-(2-oxo-tetrahydro-furan-3-yl) amide]	–	% Inhibition (ear inflammation) (rat ear oedema; dose 10 μg): 42%
CCC[C@@H]1O[C@@H]2C[C@H]3[C@@H]4C[C@H](F)C5=CC(=O)CC[C@]5(C)[C@@]4(F)[C@@H](O)C[C@]3(C)[C@]2(C(=O)SC2CCOC2=O)O1 (single isomer, unassigned) [Example 19 Isomer A, 16α,17α-(R-Butylidenedioxy)-6α,9α-difluoro-11β-hydroxy-3-oxo-androst-4-ene-17β-carbothioic acid S-(2-oxo-tetrahydro-furan-3-yl) ester]	–	% Inhibition (ear inflammation) (rat ear oedema; dose 100 μg): 54%
CCC[C@@H]1O[C@@H]2C[C@H]3[C@@H]4C[C@H](F)C5=CC(=O)CC[C@]5(C)[C@@]4(F)[C@@H](O)C[C@]3(C)[C@]2(C(=O)SC2CCOC2=O)O1 (single isomer, unassigned) [Example 19 Isomer B, 16α,17α-(R-Butylidenedioxy)-6α,9α-difluoro-11β-hydroxy-3-oxo-androst-4-ene-17β-carbothioic acid S-(2-oxo-tetrahydro-furan-3-yl) ester]	–	% Inhibition (ear inflammation) (rat ear oedema; dose 100 μg): 43%
CCC[C@@H]1O[C@@H]2C[C@H]3[C@@H]4C[C@H](F)C5=CC(=O)CC[C@]5(C)[C@@]4(F)[C@@H](O)C[C@]3(C)[C@]2(C(=O)SC2CCOC2=O)O1 (single isomer, unassigned) [Example 19, 16α,17α-(R-Butylidenedioxy)-6α,9α-difluoro-11β-hydroxy-3-oxo-androst-4-ene-17β-carbothioic acid S-(2-oxo-tetrahydro-furan-3-yl) ester]	< 400	–
CCC[C@@H]1O[C@@H]2C[C@H]3[C@@H]4C[C@H](F)C5=CC(=O)CC[C@]5(C)[C@@]4(F)[C@@H](O)C[C@]3(C)[C@]2(C(=O)NC2CCOC2=O)O1 (single isomer, unassigned) [Example 22, 16α,17α-(R-Butylidenedioxy)-6α,9α-difluoro-11β-hydroxy-3-oxo-androst-4-ene-17β-carboxylic acid N-(2-oxo-tetrahydro-furan-3-yl) amide]	< 400	half-life [2]: < 3 h
CCC(=O)O[C@]1(C(=O)SC2CCOC2=O)[C@H](C)C[C@H]2[C@@H]3C[C@H](F)C4=CC(=O)C=C[C@]4(C)[C@@]3(F)[C@@H](O)C[C@@]21C (stereo partly drawn) [Example 1, 6α,9α-Difluoro-11β-hydroxy-16α-methyl-3-oxo-17α-propionyloxy-androsta-1,4-diene-17β-carbothioic acid S-(2-oxo-tetrahydro-furan-3-yl) ester]	< 400	–
CCC(=O)O[C@]1(C(=O)SC2CCOC2=O)[C@H](C)C[C@H]2[C@@H]3C[C@H](F)C4=CC(=O)CC[C@]4(C)[C@@]3(F)[C@@H](O)C[C@@]21C (stereo partly drawn) [Example 4]	< 400	–
CCCC(=O)O[C@]1(C(=O)SC2CCOC2=O)[C@H](C)C[C@H]2[C@@H]3C[C@H](F)C4=CC(=O)C=C[C@]4(C)[C@@]3(F)[C@@H](O)C[C@@]21C (stereo partly drawn) [Example 5, 17α-Butyryloxy-6α,9α-difluoro-11β-hydroxy-16α-methyl-3-oxo-androsta-1,4-diene-17β-carbothioic acid S-(2-oxo-tetrahydro-furan-3-yl) ester]	< 400	–
CC(=O)O[C@]1(C(=O)SC2CCOC2=O)[C@H](C)C[C@H]2[C@@H]3C[C@H](F)C4=CC(=O)C=C[C@]4(C)[C@@]3(F)[C@@H](O)C[C@@]21C (stereo partly drawn) [Example 6, 17α-Acetyloxy-α,9α-difluoro-11β-hydroxy-16α-methyl-3-oxo-androsta-1,4-diene-17β-carbothioic acid S-(2-oxo-tetrahydro-furan-3-yl) ester]	< 400	–
CCC(=O)O[C@]1(C(=O)SC2CCC(=O)O2)[C@H](C)C[C@H]2[C@@H]3C[C@H](F)C4=CC(=O)C=C[C@]4(C)[C@@]3(F)[C@@H](O)C[C@@]21C (stereo partly drawn) [Example 8, 6α,9α-Difluoro-11β-hydroxy-16α-methyl-3-oxo-17α-propionyloxy-androsta-1,4-diene-11β-carbothioic acid S-(5-oxo-tetrahydro-furan-2-yl) ester]	< 400	–
CCC(=O)O[C@]1(C(=O)SC2COC(=O)C2)[C@H](C)C[C@H]2[C@@H]3C[C@H](F)C4=CC(=O)C=C[C@]4(C)[C@@]3(F)[C@@H](O)C[C@@]21C (stereo partly drawn) [Example 9, 6α,9α-Difluoro-11α-hydroxy-16α-methyl-3-oxo-17α-propionyloxy-androsta-1,4-diene-17β-carbothioic acid S-(2-oxo-tetrahydro-furan-4-yl) ester]	< 400	–
CC1(C)O[C@@H]2C[C@H]3[C@@H]4C[C@H](F)C5=CC(=O)C=C[C@]5(C)[C@@]4(F)[C@@H](O)C[C@]3(C)[C@]2(C(=O)N[C@H]2CCOC2=O)O1 [Example 15, 6α,9α-Difluoro-11β-hydroxy-16α,17α-isopropylidenedioxy-3-oxo-androsta-1,4-diene-17β-carboxylic acid N-(2-oxo-tetrahydro-furan-3S-yl) amide]	< 400	half-life [2]: < 3 h
CC1(C)O[C@@H]2C[C@H]3[C@@H]4C[C@H](F)C5=CC(=O)C=C[C@]5(C)[C@@]4(F)[C@@H](O)C[C@]3(C)[C@]2(C(=O)NC2CCOC2=O)O1 (stereo partly drawn) [Example 16, 6α,9α-Difluoro-11β-hydroxy-16α,17α-isopropylidenedioxy-3-oxo-androsta-1,4-diene-17β-carboxylic acid N-(2-oxo-tetrahydro-furan-3-yl) amide]	< 400	half-life [2]: < 3 h
CC1(C)O[C@@H]2C[C@H]3[C@@H]4C[C@H](F)C5=CC(=O)C=C[C@]5(C)[C@@]4(F)[C@@H](O)C[C@]3(C)[C@]2(C(=O)N[C@@H]2COC(=O)C2)O1 [Example 23, 6α,9α-Difluoro-11β-hydroxy-16α,17α-isopropylidenedioxy-3-oxo-androsta-1,4-diene-17β-carboxylic acid N-(2-oxo-tetrahydro-furan-4S-yl) amide]	< 400	half-life [2]: < 3 h
CC1(C)O[C@@H]2C[C@H]3[C@@H]4C[C@H](F)C5=CC(=O)C=C[C@]5(C)[C@@]4(F)[C@@H](O)C[C@]3(C)[C@]2(C(=O)N[C@H]2COC(=O)C2)O1 [Example 24, 6α,9α-Difluoro-11β-hydroxy-16α,17α-isopropylidenedioxy-3-oxo-androsta-1,4-diene-17β-carboxylic acid N-(2-oxo-tetrahydro-furan-4R-yl) amide]	< 400	–
